Measurements as given in patent US6624182B1, “Hydroxyphenylvinylthiazoles” (Ciba Specialty Chemicals Corporation, priority 1999, dated 2003).

What was measured:
Assay in all cases: Determination of the minimum inhibitory concentration (MIC value) in microtitre plates
[1] = tested on: S. aureus; format: cell-based; conditions: Staphylococcus aureus; optical density at 620 nm, 48 hours at 37° C., MIC = ≦20% growth; tested at 100; 10 and 1 ppm (approximate values); (2), (3), (4) at 120; 60; 30; 15; 7.5; 3.75 ppm
Outline: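 DMSO-dissolved compounds were tested in 1:2 serial dilutions against bacteria in CASO bouillon, from inocula of 1−5×10^6 KBE/ml diluted 1:100. Growth was read by OD 620 nm after 48 h at 37 °C. MIC was the lowest concentration giving ≦20% growth versus the growth control, tested in duplicate.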

[2] = tested on: P. aeruginosa; format: cell-based, Pseudomonas aeruginosa CIP A-22; conditions: Pseudomonas aeruginosa; optical density at 620 nm, 48 hours at 37° C., MIC = ≦20% growth; tested at 100; 10 and 1 ppm (approximate values); (2), (3), (4) at 120; 60; 30; 15; 7.5; 3.75 ppm
Outline: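 P. aeruginosa CIP A-22 at 1−5×10^6 KBE/ml, diluted 1:100 in CASO bouillon, exposed to 1:2 serial dilutions of DMSO-dissolved compound for 48 h at 37 °C, in duplicate. Growth read by OD 620 nm; MIC is the lowest concentration giving ≤20% growth relative to growth control.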

[3] = tested on: C. albicans; format: cell-based, Candida albicans ATCC 10231; conditions: Candida albicans; optical density at 620 nm, 48 hours at 37° C., MIC = ≦20% growth; tested at 100; 10 and 1 ppm (approximate values); (2), (3), (4) at 120; 60; 30; 15; 7.5; 3.75 ppm
Outline: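 Candida albicans ATCC 10231 grown overnight in CASO broth, adjusted to 1–5×10^6 CFU/ml then diluted 1:100, was exposed to 1:2 serial dilutions of compound (DMSO) for 48 h at 37 °C. Growth was read as OD620; MIC was the concentration giving ≤20% growth versus control, tested in duplicate.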

| MIC [1] | MIC [2] | MIC [3] | Structure (SMILES) |
| --- | --- | --- | --- |
| > 100 µg/mL | > 100 µg/mL | 30 µg/mL | Oc1ccc(/C=C/c2nc(-c3ccc(F)cc3)cs2)cc1 [Compound of formula (2)] |
| 60 µg/mL | > 100 µg/mL | > 100 µg/mL | CC(C)(C)c1csc(/C=C/c2ccccc2O)n1 [Compound of formula (3)] |
| > 100 µg/mL | > 100 µg/mL | 30 µg/mL | Oc1ccc(/C=C/c2nc(-c3ccccc3)cs2)cc1 [Compound of formula (4)] |
